Laboratory results reported in patent publication US6410515B1, “Peptide, a method for its preparation and a pharmaceutical composition containing the peptide” (Immunotech Developments Inc., priority 1995, dated 2002).

What was measured:
CFU-S in S-phase = assay: Thymidine suicide test on boosted (4 Gy) bone marrow; type: in vivo, mice; conditions: for Average colony count: 4 Gy, per 10^5 injected bone marrow cells; for % CFU-S in S-phase: irradiation alone 55,0, intact control 10,5
Method: The mechanism of the inhibiting effect of the peptide on hemopoiesis was studied using the “thymidine suicide” test. The method provides an accurate measurement of the percentage of dividing cells (in the S-phase of the cell cycle). A bone marrow suspension is incubated with 3H-thymidine, which kills cells in the S-phase.
The first series of experiments investigated the effect of the peptide on CFU-S proliferation. Such an assay can not be done with intact marrow since the progenitors proliferate very poorly (0 to 15% in a cycle) in intact bone marrow. Consequently, as a source of CFU-S, “boosted” bone marrow was used containing at least 40% proliferating cells. “Boosted” bone marrow was obtained from mouse bone marrow on the 7th day following radiation with a dose of 4 Gy. Donor mice were irradiated with this dose and 5 or 6 days later they received iDD. On day 7 following the irradiation, the bone marrow was examined for the percentage of dividing cells, i.e. the iDD treatment lasted 1 or 2 days. According to the results obtained, when injected two days before the extraction of bone marrow, the peptide inhibited the proliferation so that the percentage of dividing cells was even lower than in intact subjects. When the peptide was injected one day before bone marrow was taken, no effect was observed (Table 7).
Table 7 illustrates the effect of the peptide on cell proliferation in irradiated (4 Gy) bone marrow.

[1] = tested on: patients with cytopenias of immune origin; assay: Clinical study: blood indices and lymphocyte subpopulations; type: in vivo; conditions: for CD4+/CD8+ ratio After iDD treatment: normal 0.7-3.3; for % of cells After iDD treatment: CD4−CD8+ T-Suppressers: normal 18.9-47.9; for % of cells After iDD treatment: CD4+CD8− T-helpers: normal 31.4-63.8
Method: (§1) The peptide iDD was given to patients with cytopenias of immune origin and its effect on hemopoietic status was assessed using a number of immunological tests characterising both humoral and cellular immunity.
(§2) The iDD was administered 0.1 mg in a 1 ml dose intranasally (once or twice in divided doses) for 5 days. The regime was repeated after a two week interval. For patients receiving steroids and cytostatics, iDD was administered during the therapy or before the cytostatic treatment.
Below are cited the examples of indices dynamics in some patients.

[2] = tested on: patients with cytopenias of immune origin; assay: Clinical study: tolerability; type: in vivo
Method: as §1, §2

[3] = tested on: Intact bone marrow cells (hemopoietic stem cells); assay: Spleen colony formation after in vitro treatment of intact bone marrow cells; type: cell-based, mice; conditions: for Colony count: Table 4, control 9,0 ± 0,6
Method: The effect of peptides of the present invention on a population of hemopoietic progenitors was studied by testing for colony formation by hemopoietic stem cells in spleens of irradiated mice.
Intact bone marrow cells were incubated at 37° C. for 1 hour with different concentrations of the peptide ranging from […]/ml. The suspension was injected to lethally irradiated recipient mice. After 8 days the animals were killed and spleen colonies were counted.
The treatment was carried out as described above in Example 4(a).

(CBA×C57B1)F1 mice = assay: Chronic graft versus host reaction (GVHR); type: in vivo; conditions: for Mouse weight: iDD 10 μg/kg/injection
Method: The effect of the peptide on a chronic “graft versus host reaction ” (GVHR) was studied, using the mode l described by Bundic et al. (Exp. Immunol. 1995, 99, p.467). Chronic GVHR was induced in hybrid non-irradiated animals by injecting them twice with large amounts (100 mln) of spleen cells of one of the parents.
Recipients were (CBA×C57B1)F1 mice, and donors of spleen cells were mice of the strain C57B1. The preparation iDD was administered in the same dose (10 μg/kg/injection) as in the tests on transplantation of allogenic bone marrow. Th e five-day treatment course began 24 hours after the first injection of spleen cells and lasted three weeks. Control group mice received Medium 199 in the same amount and at the same time as test mice received the peptide. Each group consisted of 15 animals.
Indicators of the degree of GVHR development were animal weight and splenomegaly (as measured by the increase in recipient's spleen weight on day 21). The effectiveness of the preparation was assessed by splenomegaly suppression expressed in % to control (splenomegaly in the control group was taken for […]). The interval between the first and the second injections of spleen cells was 7 days.
On day 21, a sharp increase in weight was recorded in 70% of control mice and 55% of test mice.

[4] = tested on: hemopoietic progenitor cells (CFU-S); assay: CFU-S content in bone marrow of mice irradiated with 4 Gy; type: in vivo; conditions: day 8, control 401 ± 48
Method: The effect of H-A-D-Trp-Y, where A is D-Glu or D-iGlu and Y is OH or a substituted amide, on protection and reconstitution of the population of hemopoietic progenitor cells in cytopenias of different origin was studied.
Ionising radiation was used to deplete bone marrow. Donor mice were irradiated at a dose of 4 Gy. For each of the two peptides, 10 μg/kg was injected intraperitoneally 1 hour, 1 day or 2 days before the irradiation (groups of 12 mice each). Bone marrow was taken from femoral bones 8 days after the irradiation. Eight days generally marks the beginning of an exponential reconstitution of both the total number of cells and the population of hemopoietic progenitors in the bone marrow, which were depleted as a result of irradiation.
On the 8th day a sharp statistically significant increase was recorded in the hemopoietic progenitor cells count in the bone marrow of the mice irradiated in the dose of 4 Gy who had received the peptide 2 days before the irradiation.

H-D-iGlu-D-Trp-OH [iDD]
Average colony count (CFU-S in S-phase; iDD 1 day before marrow extraction, + 3H): 5,8 ± 0,5
Average colony count (CFU-S in S-phase; iDD 1 day before marrow extraction, without 3H): 8,3 ± 0,4
% CFU-S in S-phase (CFU-S in S-phase; iDD 1 day): 50,6%
Average colony count (CFU-S in S-phase; iDD 2 days before marrow extraction, + 3H): 2,8 ± 0,2
Average colony count (CFU-S in S-phase; iDD 2 days before marrow extraction, without 3H): 3,5 ± 0,2
% CFU-S in S-phase (CFU-S in S-phase; iDD 2 days): 5,8%
Absolute count after iDD: CD3−CD16,56+ nat. killers ([1]; Patient A, before 0.164): 0.108 bln/l
Absolute count after iDD: CD3+HLA−DR+ activated T-lymphocytes ([1]; Patient A, before 0.388): 0.251 bln/l
Absolute count after iDD: CD4−CD8+ T-Suppressers ([1]; Patient A, before 0.657): 0.305 bln/l
Absolute count after iDD: CD4+CD8− T-helpers ([1]; Patient A, before 0.769): 0.522 bln/l
Absolute count after iDD: CD45++CD14− lymphocytes ([1]; Patient A, before 1.6): 0.9 bln/l
Haemoglobin content ([1]; Patient A, iDD, no steroids): 106 g/L
CD4+/CD8+ ratio After iDD treatment ([1]; Patient A, test sample 1.2): 1.7
% of cells After iDD treatment: CD45+CD14+ monocytes ([1]; Patient A, test sample 6.1): 3.3%
% of cells After iDD treatment: CD3−CD16,56+ nat. killers ([1]; Patient A, test sample 10.3): 12.0%
% of cells After iDD treatment: CD3+HLA−DR+ activated T-lymphocytes ([1]; Patient A, test sample 24.3, normal 2.8-17.3): 27.9%
% of cells After iDD treatment: CD45++CD14− lymphocytes ([1]; Patient A, test sample 33.2): 34.8%
% of cells After iDD treatment: CD4−CD8+ T-Suppressers ([1]; Patient A, test sample 41.1): 33.9%
% of cells After iDD treatment: CD45+CD14− granulocytes ([1]; Patient A, test sample 41.4): 48.5%
% of cells After iDD treatment: CD4+CD8− T-helpers ([1]; Patient A, test sample 48.1): 58.0%
Absolute count after iDD: CD3−CD16,56+ nat. killers ([1]; Patient K, before 0.057): 0.054 bln/l
Absolute count after iDD: CD4+CD8− T-helpers ([1]; Patient K, before 0.614): 0.393 bln/l
Absolute count after iDD: CD4−CD8+ T-Suppressers ([1]; Patient K, before 0.712): 0.510 bln/l
Absolute count after iDD: CD45++CD14− lymphocytes ([1]; Patient K, before 1.68): 1.09 bln/l
CD4+/CD8+ ratio After iDD treatment ([1]; Patient K, test sample 0.8): 0.8
% of cells After iDD treatment: CD3−CD16,56+ nat. killers ([1]; Patient K, test sample 3.4, normal 4.8-26.7): 5.0%
% of cells After iDD treatment: CD45+CD14+ monocytes ([1]; Patient K, test sample 5.3): 5.2%
% of cells After iDD treatment: CD45++CD14− lymphocytes ([1]; Patient K, test sample 26.0): 20.2%
% of cells After iDD treatment: CD4+CD8− T-helpers ([1]; Patient K, test sample 36.3): 36.1%
% of cells After iDD treatment: CD4−CD8+ T-Suppressers ([1]; Patient K, test sample 44.5): 46.8%
% of cells After iDD treatment: CD45+CD14− granulocytes ([1]; Patient K, test sample 55.8): 74.7%
Dynamics of biochemical indices ([2]; before and after 1-3 treatment courses): no changes
Somatic status (physical examinations) ([2]; before and after the treatment): no changes
Changes in AP dynamics and ECG ([2]; iDD courses): not observed
Toxic and adverse reactions ([2]; prolonged administration (5-6 courses), 0.1 mg intranasally for 5 days): no toxic reactions
Decrease of number of spleen colonies ([3]; Table 4, in the presence of the peptide): more than 50%
Colony count ([3]; peptide dose 0,1 μg/ml, no thymocytes): 4,4 ± 0,5
Colony count ([3]; peptide dose 0,02 μg/ml, no thymocytes): 3,6 ± 0,5
Colony count ([3]; peptide dose 1,0 μg/ml, no thymocytes): 4,3 ± 0,3
Colony count ([3]; peptide dose 10,0 μg/ml, no thymocytes): 4,3 ± 0,1
Colony count ([3]; peptide dose 10,0 μg/ml, with thymocytes 2 × 10^7 cells): 8,7 ± 0,4
Colony count ([3]; peptide dose 20,0 μg/ml, no thymocytes): 3,9 ± 0,4
Survival rate ((CBA×C57B1)F1 mice; 21 days, control 80%): 100%
Weight loss throughout the experiment ((CBA×C57B1)F1 mice; 21 days, control group weight loss 3 g): practically no weight loss
Splenomegaly suppression, % ((CBA×C57B1)F1 mice; day 21, relative to control): 26%
Splenomegaly ((CBA×C57B1)F1 mice; day 21, control 12,6 ± 1,2, intact 3,4 ± 0,3): 10,2 ± 1,0 mg spleen per mg body weight
Mice with sharp increase in weight on day 21 ((CBA×C57B1)F1 mice; day 21, control 70%): 55%
Mouse weight ((CBA×C57B1)F1 mice; day 0 after the first injection of spleen cells, control 22,3 ± 0,9): 22,6 ± 0,7 g
Mouse weight ((CBA×C57B1)F1 mice; day 7, control 21,7 ± 0,8): 25,0 ± 0,6 g
Mouse weight ((CBA×C57B1)F1 mice; day 14, control 18,3 ± 0,9): 23,3 ± 1,0 g
Mouse weight ((CBA×C57B1)F1 mice; day 21, control 19,3 ± 1,1): 22,7 ± 0,9 g
CFU-S count per femur ([4]; 10 μg/kg IP 1 hour before 4 Gy): 394 ± 57
CFU-S count per femur ([4]; 10 μg/kg IP 1 day before 4 Gy): 324 ± 63
CFU-S count per femur ([4]; 10 μg/kg IP 2 days before 4 Gy): 677 ± 49
